≈ marks a conversion by molar mass, not a printed value. Where two headings read alike, the source gives them in different places.
Columns and labels:
Assay in all cases: Minimum inhibitory concentration
Assay type in all cases: cell-based
[1] = test system: Streptococcus oralis ATCC 35037
Excerpt: (§1) That is, the amount in parts-per-million (ppm) required to inhibit the growth of common bacterial pathogens.

[2] = test system: Actinomyces viscosus ATCC 43137
Excerpt: as §1

[3] = test system: Lactobacillus casei ATCC 334; conditions: Lacticaseibacillus casei
Excerpt: as §1

[4] = ATCC35037, Streptococcus oralis ATCC 35037, solvent ethanol or DMSO per sample, read-out: minimum inhibitory concentration
[5] = ATCC43137, Actinomyces viscosus ATCC 43137, solvent ethanol or DMSO per sample, read-out: minimum inhibitory concentration
[6] = ATCC334, Lactobacillus casei ATCC 334, solvent ethanol or DMSO per sample, read-out: minimum inhibitory concentration

MIC [1, 4] [µg/mL]	MIC [2, 5] [µg/mL]	MIC [3, 6] [µg/mL]	SMILES	MIC ([1]; Streptococcus oralis, ATCC35037, read-out: minimum inhibitory concentration) [µg/mL]	MIC ([2]; Actinomyces viscosus, ATCC43137, read-out: minimum inhibitory concentration) [µg/mL]	MIC ([3]; ATCC334, read-out: minimum inhibitory concentration) [µg/mL]
250 (≈ 1520 µM)	250 (≈ 1520 µM)	250 (≈ 1520 µM)	C=CCc1ccc(O)c(OC)c1 [Eugenol, 4-allyl-2-methoxyphenol]			
7.8 (≈ 17.1 µM)	15.6 (≈ 34.2 µM)	7.8 (≈ 17.1 µM)	CC1(C)CC[C@]2(C(=O)O)CC[C@]3(C)C(=CC[C@@H]4[C@@]5(C)CC[C@H](O)C(C)(C)[C@@H]5CC[C@]43C)[C@@H]2C1 [Oleanic Acid, 3β-hydroxy-olea-12-en-28-oic]			
			Oc1cc(Cl)ccc1Oc1ccc(Cl)cc1Cl [Triclosan]	7.8 (≈ 26.9 µM)	3.9 (≈ 13.5 µM)	7.8 (≈ 26.9 µM)
